Values quoted from earlier work in patent US20180235992A1, “IMMUNOTHERAPIES FOR MALIGNANT, NEURODEGENERATIVE AND DEMYELINATING DISEASES BY THE USE OF TARGETED NANOCARRIERS” (RODOS BIOTARGET GMBH, priority 2015, published 2018).

Legend:
pancreatic cancer = conditions: given intravenously, equal dose
human melanoma cells = conditions: Fas Receptor/Caspase-8 pathway independent of p53
[1] = system: human vascular endothelial cells; conditions: in vitro
[2] = system: Fibroblast Growth Factor-2-induced angiogenic response; conditions: in-vivo
[3] = system: human acute myelogenous leukemia cell line HL-60
[4] = system: multiple myeloma cell lines
pancreatic cancer model = conditions: in vivo
pancreatic cancer cells = conditions: modulating miR-200 and miR-21 expression
human pancreatic cancer = conditions: mouse, in vivo
[5] = system: squamous cell carcinoma head and neck cell lines
[6] = system: Alzheimer's β-amyloid fibrils; conditions: in vitro

Molecule | tumor weights and volumes (pancreatic cancer) | proliferation and apoptosis (mantle cell lymphoma) | apoptosis (human melanoma cells) | proliferation [1] | angiogenic response [2] | apoptosis [3] | expression of NF-κB, Bcl-2 and Bcl-XL [4] | antitumor activity of gemcitabine (pancreatic cancer model) | gemcitabine sensitivity (pancreatic cancer cells) | tumor growth and angiogenesis (human pancreatic cancer) | apoptosis [5] | anti-amyloidogenic effects [6]
COc1cc(/C=C/C(=O)CC(=O)/C=C/c2ccc(O)c(OC)c2)ccc1O [curcumin] | failed to cause a significant reduction | suppress proliferation, and induce apoptosis | induces apoptosis | suppresses the proliferation | inhibits | induces apoptosis | suppresses expression | potentiates the antitumor activity of gemcitabine | induces gemcitabine sensitivity | inhibits tumor growth and angiogenesis | induces apoptosis | potent anti-amyloidogenic effects
[DLys(6)]-LHRH-curcumin | caused a reduction in tumor weights and volumes |  |  |  |  |  |  |  |  |  |  | 
